Here are results for 24 molecules from patent US20240246932A1 (Merck Sharp & Dohme LLC, priority 2021, published 2024).

This test deals with human NaV 1.8 channels stably expressed in HEK 293 cells (Homo sapiens (Human), UniProt Q9Y5Y9). The test can be described thus: Nav1.8 Qube automated patch-clamp assay. The settings on record: human NaV1.8 in HEK 293 cells, whole-cell voltage clamp, room temperature; read-out: IC50 values (nM) for Examples in the Nav1.8 Qube Assay. It is filed as cell-based. As to the method: Compounds were tested on human NaV 1.8 and NaV1.5 channels stably expressed in human embryo kidney (HEK) 293 cells. Sodium current measurements on Qube® were conducted as follows: automated 384-well patch-clamp assays on the Qube® platform (Sophion Biosciences) were used to measure the inhibition of sodium flow through human NaV1.8 and NaV1.5 channels. Whole-cell voltage-clamp recordings were performed in QChips® (Sophion Biosciences) at room temperature. NaV1.8 current measurements on Qube® were obtained as follows: NaV1.8 currents were elicited with a 10 second 1 Hertz (Hz) pulse train from a holding potential of −90 millivolts (mV), delivered to the cells once per minute in the control condition (DMSO only) and after compound addition. The 1 hertz pulse train stimulation consisted of ten test pulses to 10 millivolt (mV) for 20 milliseconds (ms), each of which was followed by a 980 millisecond repolarization to −67 millivolts. At the end of the 10 second pulse train stimulation, a 5 second hyperpolarization step to −100 millivolt (mV) was used to recover NaV1.8 from fast inactivation. The peak currents elicited by the 1st and 10th test pulses were used to determine IC50 values for resting inhibition and inactivated state inhibition. NaV1.5 current measurements on Qube® were obtained as follows: NaV1.5 currents were elicited with a 20 second 3 Hertz pulse train in the control condition (DMSO only) and after compound addition. The pulse train consisted of sixty 20 millisecond test pulses to 0 millivolt from a holding potential of −80 millivolt (mV). The average peak currents elicited by the last 3 test pulses were used to determine IC50 values for NaV1.5 inhibition.
The following buffers were used for the Qube® recordings: External buffer for NaV1.8 Qube® recording: 150 NaCl, 2 CaCl2, 5 KCl, 1 MgCl2, 10 HEPES, 12 Dextrose; External buffer for Qube® NaV1.5 recording: 120 N-Methyl-D-Glucamine, 40 NaCl, 1 KCl, 2.7 CaCl2), 5 HEPES, 0.5 MgCl2; and Internal buffer for Qube® recording: 120 CsF, 30 CsCl, 10 EGTA, 5 HEPES, 5 NaF, 2 MgCl2.
For all Qube® experiments offline analysis was used to determine percent inhibition as a function of drug concentration. IC50 values were determined by fitting to the Hill equation.
On the technique in general: The patch-clamp technique gives a direct electrical read-out from membranes.

Chain of human NaV 1.8 channels stably expressed in HEK 293 cells (Q9Y5Y9 whole entry): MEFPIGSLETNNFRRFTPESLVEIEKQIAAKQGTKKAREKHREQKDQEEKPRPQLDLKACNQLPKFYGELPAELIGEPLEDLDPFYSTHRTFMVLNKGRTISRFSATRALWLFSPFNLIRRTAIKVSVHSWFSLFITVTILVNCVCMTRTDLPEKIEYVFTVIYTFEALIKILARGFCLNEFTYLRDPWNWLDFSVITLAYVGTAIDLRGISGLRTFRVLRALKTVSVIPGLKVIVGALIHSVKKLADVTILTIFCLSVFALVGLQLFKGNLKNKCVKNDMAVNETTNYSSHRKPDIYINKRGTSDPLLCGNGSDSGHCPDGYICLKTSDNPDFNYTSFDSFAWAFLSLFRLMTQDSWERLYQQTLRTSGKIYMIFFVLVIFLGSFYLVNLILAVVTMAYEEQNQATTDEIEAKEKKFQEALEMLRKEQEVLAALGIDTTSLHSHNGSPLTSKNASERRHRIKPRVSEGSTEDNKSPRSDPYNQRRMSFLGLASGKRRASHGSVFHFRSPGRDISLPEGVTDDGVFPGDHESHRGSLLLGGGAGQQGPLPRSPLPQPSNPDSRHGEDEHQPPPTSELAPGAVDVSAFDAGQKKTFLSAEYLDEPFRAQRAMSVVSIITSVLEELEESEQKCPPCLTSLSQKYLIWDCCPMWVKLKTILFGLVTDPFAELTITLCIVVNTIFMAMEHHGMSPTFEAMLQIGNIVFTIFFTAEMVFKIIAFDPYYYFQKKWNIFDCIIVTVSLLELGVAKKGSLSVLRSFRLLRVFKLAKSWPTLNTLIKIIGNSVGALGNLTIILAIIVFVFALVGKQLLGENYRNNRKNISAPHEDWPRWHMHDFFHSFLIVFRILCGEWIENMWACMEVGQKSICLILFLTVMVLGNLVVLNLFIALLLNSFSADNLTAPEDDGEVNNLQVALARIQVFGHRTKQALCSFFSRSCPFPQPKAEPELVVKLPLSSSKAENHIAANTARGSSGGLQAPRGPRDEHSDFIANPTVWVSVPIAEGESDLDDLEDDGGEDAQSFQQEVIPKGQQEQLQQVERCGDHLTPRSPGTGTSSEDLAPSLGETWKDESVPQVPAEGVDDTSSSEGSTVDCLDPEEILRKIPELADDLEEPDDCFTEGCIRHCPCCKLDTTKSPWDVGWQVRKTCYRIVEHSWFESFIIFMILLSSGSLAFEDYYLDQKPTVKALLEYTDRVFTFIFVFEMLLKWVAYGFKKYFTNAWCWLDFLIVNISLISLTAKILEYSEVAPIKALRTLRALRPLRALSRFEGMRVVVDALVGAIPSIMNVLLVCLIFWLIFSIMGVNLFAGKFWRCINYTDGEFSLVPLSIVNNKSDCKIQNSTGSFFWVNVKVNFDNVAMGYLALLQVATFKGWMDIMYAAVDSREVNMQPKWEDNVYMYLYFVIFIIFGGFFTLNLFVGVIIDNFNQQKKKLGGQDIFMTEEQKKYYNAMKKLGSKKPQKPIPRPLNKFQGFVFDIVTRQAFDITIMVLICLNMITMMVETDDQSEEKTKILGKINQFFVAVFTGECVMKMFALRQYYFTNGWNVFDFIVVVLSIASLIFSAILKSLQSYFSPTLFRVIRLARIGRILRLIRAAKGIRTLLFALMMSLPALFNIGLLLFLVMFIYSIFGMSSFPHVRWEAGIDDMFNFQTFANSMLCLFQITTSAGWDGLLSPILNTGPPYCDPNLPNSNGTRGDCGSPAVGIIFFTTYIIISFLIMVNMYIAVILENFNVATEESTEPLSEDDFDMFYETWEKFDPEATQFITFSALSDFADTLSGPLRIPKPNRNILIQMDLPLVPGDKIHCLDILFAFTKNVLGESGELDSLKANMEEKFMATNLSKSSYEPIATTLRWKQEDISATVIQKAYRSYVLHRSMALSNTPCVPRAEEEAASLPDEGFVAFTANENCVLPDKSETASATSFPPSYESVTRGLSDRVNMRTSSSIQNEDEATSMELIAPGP

Consider `O=C1CN(C(=O)NC(c2ccc(Cl)c(C(F)(F)F)n2)c2ccc(F)c(Cl)c2F)CCN1` (single isomer, unassigned) [Example 78B, N-((S or R)-(3-chloro-2,4-difluorophenyl)(5-chloro-6-(trifluoro-methyl)pyridin-2-yl)methyl)-3-oxopiperazine-1-carboxamide], for which the IC50 (in general, the concentration that inhibits the measured activity by half) is 3.54 nM. For `C[C@@H]1C(=O)NCCN1C(=O)NC(c1cnc(OCC(F)(F)F)nc1)c1ccc(F)c(Cl)c1F` (single isomer, unassigned) [Example 12A], the IC50 worked out at 9.24 nM. Consider `C[C@@H]1C(=O)NCCN1C(=O)NC(c1ccc(C(C)(F)F)nc1)c1ccc(F)c(Cl)c1F` (single isomer, unassigned) [Example 75B], for which the IC50 was 2.95 nM. As for `C[C@@H]1C(=O)NCCN1C(=O)NC(c1ccc(OCC(F)(F)F)nc1)c1ccc(F)c(F)c1` (single isomer, unassigned) [Example 6B, (2R)-N-((S or R)-(3,4-difluorophenyl)(6-(2,2,2-trifluoro-ethoxy)pyridin-3-yl)methyl)-2-methyl-3-oxopiperazine-1-carboxamide], the figure is 128 nM; as for `CCC1C(=O)NCCN1C(=O)NC(c1ccc(C(F)(F)F)nc1)c1ccc(F)c(Cl)c1F` (single isomer, unassigned) [Example 40B, N-((R or S)-(3-chloro-2,4-difluorophenyl)(6-(trifluoromethyl)pyridin-3-yl)methyl)-(S or R)-2-ethyl-3-oxopiperazine-1-carboxamide], 10.5 nM. As to `C[C@@H]1C(=O)NCCN1C(=O)NC(c1ccc(C(F)F)nc1)c1ccc(F)c(Cl)c1F` (single isomer, unassigned) [Example 32B, (2R)-N-((s or R)-(3-chloro-2,4-difluoro-phenyl)(6-(difluoro-methyl)pyridin-3-yl)methyl)-2-methyl-3-oxopiperazine-1-carboxamide], the IC50 was determined as 13 nM. Turning to `C[C@@H]1C(=O)NCCN1C(=O)NC(c1cnc(OCC(F)(F)F)s1)c1ccc(F)c(Cl)c1F` (single isomer, unassigned) [Example 13A, (2R)-N-((R or S)-(3-chloro-2,4-difluoro-phenyl)(2-(2,2,2-tri-fluoroethoxy)thiazol-5-yl)methyl)-2-methyl-3-oxopiperazine-1-carboxamide], the IC50 came to 2.13 nM. On to `C[C@@H]1C(=O)NCCN1C(=O)NC(c1ccc(OC2CC2)c(F)c1)c1ccc(F)c(C(F)(F)F)n1` (single isomer, unassigned) [Example 59B, (2R)-N-((S or R)-(4-cyclopropoxy-3-fluorophenyl)(5-fluoro-6-(trifluoromethyl)pyridin-2-yl)methyl)-2-methyl-3-oxopiperazine-1-carboxamide], for which the IC50 came to 31.8 nM.

For the molecule `C[C@@H]1C(=O)NCCN1C(=O)NC(c1ccc(C2CC2)nc1)c1ccc(F)c(Cl)c1F` (single isomer, unassigned) [Example 33A, (2R)-N-((R or S)-(3-chloro-2,4-difluoro-phenyl)(6-cyclo-propylpyridin-3-yl)methyl)-2-methyl-3-oxopiperazine-1-carboxamide], the IC50 worked out at 14.4 nM.

As for `C[C@@H]1C(=O)NCCN1C(=O)NC(c1ccc(OC(F)(F)F)cc1)c1ccc(F)c(C(F)(F)F)n1` (single isomer, unassigned) [Example 55A, (2R)-N-((R or S)-(5-fluoro-6-(trifluoro-methyl)pyridin-2-yl)(4-(trifluoromethoxy)phenyl)methyl)-2-methyl-3-oxopiperazine-1-carboxamide], the IC50 amounted to 2.68 nM. To `C[C@@H]1C(=O)NCCN1C(=O)NC(c1ccc(OC(F)(F)F)cc1)c1cc(C(F)(F)F)n[nH]1` (single isomer, unassigned) [Example 87A, (2R)-2-methyl-3-oxo-N-((R or S)-(4-(trifluoromethoxy)phenyl)(3-(trifluoromethyl)-1H-pyrazol-5-yl)methyl)piperazine-1-carboxamide] belongs 124 nM. To `C[C@@H]1C(=O)NCCN1C(=O)NC(c1cnc(C(F)(F)F)c(Cl)c1)c1ccc(F)c(C(F)(F)F)n1` (single isomer, unassigned) [Example 82A] belongs 17.4 nM; to `C[C@@H]1C(=O)NCCN1C(=O)NC(c1ccc(OCC(F)(F)F)nc1)c1ccc(F)c(F)c1` (single isomer, unassigned) [Example 6A, (2R)-N-((R or S)-(3,4-difluorophenyl)(6-(2,2,2-trifluoro-ethoxy)pyridin-3-yl)methyl)-2-methyl-3-oxopiperazine-1-carboxamide], 20 nM.

Take `C[C@@H]1C(=O)NCCN1C(=O)NC(c1ccc(C(F)(F)F)nc1)c1ccc(Cl)c(Cl)c1` (single isomer, unassigned) [Example 18B, (2R)-N-((S or R)-(3,4-dichlorophenyl)(6-(trifluoromethyl)pyridin-3-yl)methyl)-2-methyl-3-oxopiperazine-1-carboxamide]: the IC50 was found to be 4.69 nM. As for `O=C1CN(C(=O)NC(c2ccc(Cl)c(F)c2)c2ccc(F)c(C(F)(F)F)n2)CCN1` (single isomer, unassigned) [Example 54B, N-((S or R)-(4-chloro-3-fluorophenyl)(5-fluoro-6-(trifluoromethyl)pyridin-2-yl)methyl)-3-oxopiperazine-1-carboxamide], the figure is 4.14 nM; as for `C[C@@H]1C(=O)NCCN1C(=O)NC(c1ccc(OC(F)F)nc1)c1ccc(F)c(Cl)c1F` (single isomer, unassigned) [Example 31A, (2R)-N-((R or S)-(3-chloro-2,4-difluoro-phenyl)(6-(difluoro-methoxy)pyridin-3-yl)methyl)-2-methyl-3-oxopiperazine-1-carboxamide], 3.47 nM.

Turning to `C[C@@H]1C(=O)NCCN1C(=O)NC(c1ccc(OC(F)(F)F)nc1)c1ccc(F)c(C(F)(F)F)n1` (single isomer, unassigned) [Example 51B, (2R)-N-((S or R)-(5-fluoro-6-(trifluoro-methyl)pyridin-2-yl)(6-(trifluoromethoxy)pyridin-3-yl)methyl)-2-methyl-3-oxopiperazine-1-carboxamide], the IC50 amounted to 13.2 nM. To `O=C1CN(C(=O)NC(c2ccc(Cl)c(C(F)(F)F)n2)c2ccc(F)c(Cl)c2F)CCN1` (single isomer, unassigned) [Example 78A, N-((R or S)-(3-chloro-2,4-difluorophenyl)(5-chloro-6-(trifluoro-methyl)pyridin-2-yl)methyl)-3-oxopiperazine-1-carboxamide] belongs 15.3 nM; to `C[C@@H]1C(=O)NCCN1C(=O)NC(c1ccc(Cl)cc1)c1ccc(OCC(F)(F)F)nc1` (single isomer, unassigned) [Example 5A, (2R)-N-((R or S)-(4-chlorophenyl)(6-(2,2,2-trifluoro-ethoxy)pyridin-3-yl)methyl)-2-methyl-3-oxopiperazine-1-carboxamide], 17.6 nM.

As for `C[C@@H]1C(=O)NCCN1C(=O)NC(c1ccc(F)c(F)c1)c1ccc(F)c(C(F)(F)F)n1` (single isomer, unassigned) [Example 49A, (2R)-N-((R or S)-(3,4-difluorophenyl)(5-fluoro-6-(trifluoro-methyl)pyridin-2-yl)methyl)-2-methyl-3-oxopiperazine-1-carboxamide], the IC50 amounted to 258 nM.

Consider `C[C@@H]1C(=O)NCCN1C(=O)NC(c1ccc(Cl)c(C#N)c1)c1ccc(F)c(C(F)(F)F)n1` (single isomer, unassigned) [Example 52B, (2R)-N-((S or R)-(4-chloro-3-cyano-phenyl)(5-fluoro-6-(trifluoromethyl)pyridin-2-yl)methyl)-2-methyl-3-oxopiperazine-1-carboxamide], for which the IC50 came out at 64.5 nM.

Consider `C[C@@H]1C(=O)NCCN1C(=O)NC(c1cnc(C(F)(F)F)nc1)c1ccc(Cl)c(Cl)c1` (single isomer, unassigned) [Example 28A, (2R)—N—((R or S)-(3,4-dichlorophenyl)(2-(trifluoromethyl)pyrimidin-5-yl)methyl)-2-methyl-3-oxopiperazine-1-carboxamide], for which the IC50 amounted to 10.8 nM. In the case of `C[C@@H]1C(=O)NCCN1C(=O)NC(c1ccc(F)c(Cl)c1)c1cc(C(F)(F)F)n[nH]1` (single isomer, unassigned) [Example 85A], the IC50 came to 57.8 nM. Take `C[C@@H]1C(=O)NCCN1C(=O)NC(c1ccc(F)c(Cl)c1)c1cc(C(F)(F)F)nn1C` (single isomer, unassigned) [Example 86B, (2R)-N-((S or R)-(3-chloro-4-fluoro-phenyl)(1-methyl-3-(trifluoro-methyl)-1H-pyrazol-5-yl)methyl)-2-methyl-3-oxo-piperazine-1-carboxamide]: the IC50 is 154 nM.
